Assays:
Type in all cases: in vivo
[1] = system: ragweed (common ragweed, Ambrosia elatior); experiment: Test A preemergence; conditions: Ambrosia artemisiifolia, pre-emergence, 240 h, read-out: Plant response rating, Ragweed
In short: (§1)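 Each rating is a visual injury score from 0 to 100 given about 10 d after treatment, judged against untreated controls kept alongside in the greenhouse. In loam soil–sand blend, seeds got a preemergence directed soil spray, while postemergence plants were 2 to 10 cm tall at spraying.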

[2] = system: barnyardgrass (Echinochloa crus-galli); experiment: Test A preemergence; conditions: Echinochloa crus-galli, pre-emergence, 240 h, read-out: Plant response rating, Barnyardgrass
In short: as §1

[3] = system: giant foxtail (Setaria faberii); experiment: Test A preemergence; conditions: Setaria faberi, pre-emergence, 240 h, read-out: Plant response rating, Foxtail, Giant
In short: as §1

[4] = system: pigweed (Amaranthus retroflexus); experiment: Test A preemergence; conditions: Amaranthus retroflexus, pre-emergence, 240 h, read-out: Plant response rating, Pigweed
[5] = system: Kochia (Kochia scoparia); experiment: Test A preemergence; conditions: Bassia scoparia, pre-emergence, 240 h, read-out: Plant response rating, Kochia
In short: as §1

[6] = system: ryegrass, Italian (Italian ryegrass, Lolium multiflorum); experiment: Test A preemergence; conditions: Lolium multiflorum, pre-emergence, 240 h, read-out: Plant response rating, Ryegrass, Italian
In short: as §1

[7] = system: barnyardgrass (Echinochloa crus-galli); experiment: Test A postemergence; conditions: Echinochloa crus-galli, post-emergence, 240 h, read-out: Plant response rating, Barnyardgrass
In short: as §1

[8] = system: blackgrass (Alopecurus myosuroides); experiment: Test A postemergence; conditions: Alopecurus myosuroides, post-emergence, 240 h, read-out: Plant response rating, Blackgrass
In short: as §1

[9] = system: pigweed (Amaranthus retroflexus); experiment: Test A postemergence; conditions: Amaranthus retroflexus, post-emergence, 240 h, postemergence, 0 to 100 scale (0 no effect, 100 complete control), read-out: Plant response rating, Pigweed
In short: as §1

[10] = system: Kochia (Kochia scoparia); experiment: Test A postemergence; conditions: Bassia scoparia, post-emergence, 240 h, postemergence, 0 to 100 scale (0 no effect, 100 complete control), read-out: Plant response rating, Kochia
In short: as §1

[11] = system: barnyardgrass (Echinochloa crus-galli); experiment: Test B flooded paddy test; conditions: Flood, 250 g ai/ha; 0 to 100 scale where 0 is no effect and 100 is complete control; 13 to 15 d
In short: (§2)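 Compound goes directly into floodwater once pots are flooded 3 cm above soil, targeting plants at two leaves; the water depth is then held for the test duration. Plants sit 13–15 d in a greenhouse and are rated visually, 100 denoting complete control.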

[12] = system: rice (Oryra sativa); experiment: Test B flooded paddy test; conditions: Flood, 250 g ai/ha; 0 to 100 scale where 0 is no effect and 100 is complete control; 13 to 15 d
In short: as §2

[13] = system: sedge, umbrella (small-flower umbrella sedge, Cyperus difformis); experiment: Test B flooded paddy test; conditions: Flood, 250 g ai/ha; 0 to 100 scale where 0 is no effect and 100 is complete control; 13 to 15 d
In short: as §2

[14] = system: ducksalad (Heteranthera limosa); experiment: Test B flooded paddy test; conditions: Flood, 250 g ai/ha; 0 to 100 scale where 0 is no effect and 100 is complete control; 13 to 15 d
In short: as §2

[15] = 125 g ai/ha, Preemergence, visual injury after approximately 10 d, 0 to 100 scale where 0 is no effect and 100 is complete control
[16] = 500 g ai/ha, preemergence, 0 to 100 scale, 0 = no effect, 100 = complete control
[17] = 125 g ai/ha, postemergence, visual rating after approx. 10 d, 0 to 100 scale (0 no effect, 100 complete control)
[18] = Postemergence, 500 g ai/ha, 0 to 100 scale where 0 is no effect and 100 is complete control
[19] = 125 g ai/ha, visual rating after approx. 10 d
[20] = 500 g ai/ha, visual injury, approx. 10 d

Structure (SMILES): CN1C[C@H](c2ccc(F)c(F)c2)[C@@H](C(=O)Nc2cccc(F)c2F)C1=O [Compound 639, (3S,4S)—N-(2,3-difluorophenyl)-4-(3,4-difluorophenyl)-1-methyl-2-oxo-3-pyrrolidinecarboxamide]
- pest or weed control at 125 g/ha [1, 15]: 50%
- pest or weed control at 500 g/ha [1, 16]: 70%
- pest or weed control at 125 g/ha [2, 15]: 90%
- pest or weed control at 500 g/ha [2, 16]: 90%
- pest or weed control at 125 g/ha [3, 15]: 90%
- pest or weed control at 500 g/ha [3, 16]: 100%
- pest or weed control at 125 g/ha [4, 15]: 50%
- pest or weed control at 500 g/ha [4, 16]: 80%
- pest or weed control at 125 g/ha [5, 15]: 70%
- pest or weed control at 500 g/ha [5, 16]: 80%
- pest or weed control at 125 g/ha [6, 15]: 60%
- pest or weed control at 500 g/ha [6, 16]: 90%
- pest or weed control at 125 g/ha [7, 17]: 90%
- pest or weed control at 500 g/ha [7, 18]: 90%
- pest or weed control at 125 g/ha [8, 17]: 60%
- pest or weed control at 500 g/ha [8, 18]: 60%
- pest or weed control at 125 g/ha [9, 19]: 20%
- pest or weed control at 500 g/ha [9, 20]: 50%
- pest or weed control at 125 g/ha [10, 19]: 60%
- pest or weed control at 500 g/ha [10, 20]: 70%
- Plant response rating, Barnyardgrass [11]: 80
- Plant response rating, Rice [12]: 0
- Plant response rating, Sedge, Umbrella [13]: 0
- Plant response rating, Ducksalad [14]: 100

— US12077503B2, “Substituted cyclic amides and their use as herbicides” (FMC CORPORATION, priority 2015, dated 2024)
